Results taken from ChEMBL document CHEMBL5576112, “Synthesis, in silico, in vitro evaluation of furanyl- and thiophenyl-3-phenyl-1H-indole-2-carbohydrazide derivatives as tubulin inhibitors and anticancer agents” (RSC Med Chem, 2024).
Activity calls are given as the source filed them. The calls are words filed in the database; no cut-off is given here.

Tests used:
NCI-H522 [1] = assay: Growth inhibition of human NCI-H522 cells measured after 48 hrs by sulforhodamine B assay; assay type: functional; settings: for CC50: read-out: LC50 (the source's name)
NCI/ADR-RES [2] = assay: Growth inhibition of human NCI-ADR-RES cells at 10 uM measured after 48 hrs by sulforhodamine B assay; assay type: functional, cell-based
NCI-H522 [3] = assay: Growth inhibition of human NCI-H522 cells at 10 uM measured after 48 hrs by sulforhodamine B assay; assay type: functional, cell-based
NCI/ADR-RES [4] = assay: Growth inhibition of human NCI-ADR-RES cells measured after 48 hrs by sulforhodamine B assay; assay type: functional; settings: for CC50: read-out: LC50 (the source's name)
SF-539 [5] = assay: Growth inhibition of human SF-539 cells measured after 48 hrs by sulforhodamine B assay; assay type: functional; settings: for CC50: read-out: LC50 (the source's name)
SF-539 [6] = assay: Growth inhibition of human SF-539 cells at 10 uM measured after 48 hrs by sulforhodamine B assay; assay type: functional, cell-based
MDA-MB-231 [7] = assay: Induction of apoptosis in human MDA-MB-231 cells assessed as necrotic cells at 10 uM measured after 24 hrs by Annexin V/7-AAD double staining based muse cell analyzer method (reference value: 0.72%); assay type: functional
MDA-MB-231 [8] = assay: Cell cycle arrest in human MDA-MB-231 cells assessed as accumulation of cells at S phase at 10 uM measured after 24 hrs by Muse cell analyzer based assay (reference value: 12.9%); assay type: functional
MDA-MB-231 [9] = assay: Induction of apoptosis in human MDA-MB-231 cells assessed as early apoptotic cells at 10 uM measured after 24 hrs by Annexin V/7-AAD double staining based muse cell analyzer method (reference value: 1.64%); assay type: functional
MDA-MB-231 [10] = assay: Induction of apoptosis in human MDA-MB-231 cells assessed as viable cells at 10 uM measured after 24 hrs by Annexin V/7-AAD double staining based muse cell analyzer method (reference value: 96.21%); assay type: functional; settings: read-out: Activity
MDA-MB-435 [11] = assay: Growth inhibition of human MDA-MB-435 cells measured after 48 hrs by sulforhodamine B assay; assay type: functional; settings: for CC50: read-out: LC50 (the source's name)
MDA-MB-231 [12] = assay: Induction of morphological changes in human MDA-MB-231 cells assessed as loss of cell polarity at 10 uM measured after 24 hrs; assay type: functional, cell-based
MDA-MB-231 [13] = assay: Cytotoxicity against human MDA-MB-231 cells assessed as reduction in cell viability measured after 48 hrs by MTT assay; assay type: functional, cell-based; settings: MDA-MB-231, 48 h
COLO 205 [14] = assay: Growth inhibition of human COLO 205 cells at 10 uM measured after 48 hrs by sulforhodamine B assay; assay type: functional, cell-based
Sus scrofa [15] = species on record: Sus scrofa; assay: Inhibition of porcine brain tubulin polymerization assessed as microtubule destabilization at 10 uM measured at 60 secs interval for 60 mins in presence of GTP by fluorescence assay
COLO 205 [16] = assay: Growth inhibition of human COLO 205 cells measured after 48 hrs by sulforhodamine B assay; assay type: functional; settings: for CC50: read-out: LC50 (the source's name)
MDA-MB-435 [17] = assay: Growth inhibition of human MDA-MB-435 cells at 10 uM measured after 48 hrs by sulforhodamine B assay; assay type: functional, cell-based
SK-MEL-5 [18] = assay: Growth inhibition of human SK-MEL-5 cells measured after 48 hrs by sulforhodamine B assay; assay type: functional; settings: for CC50: read-out: LC50 (the source's name)
SK-MEL-5 [19] = assay: Growth inhibition of human SK-MEL-5 cells at 10 uM measured after 48 hrs by sulforhodamine B assay; assay type: functional, cell-based
MDA-MB-231 [20] = assay: Induction of apoptosis in human MDA-MB-231 cells assessed as late apoptotic cells at 10 uM measured after 24 hrs by Annexin V/7-AAD double staining based muse cell analyzer method (reference value: 1.44%); assay type: functional
[21] = Cytotoxicity against human HaCaT cells assessed as reduction in cell viability measured after 48 hrs by MTT assay; assay type: toxicity, cell-based
MDA-MB-231 [22] = assay: Cell cycle arrest in human MDA-MB-231 cells assessed as accumulation of cells at G0/G1 phase at 10 uM measured after 24 hrs by Muse cell analyzer based assay (reference value: 59.7%); assay type: functional
MDA-MB-231 [23] = assay: Cell cycle arrest in human MDA-MB-231 cells assessed as accumulation of cells at G2/M phase at 10 uM measured after 24 hrs by Muse cell analyzer based assay (reference value: 27.3%); assay type: functional
Sus scrofa [24] = species on record: Sus scrofa; assay: Inhibition of porcine brain tubulin polymerization assessed as microtubule destabilization by measuring relative fluorescence unit at 10 uM measured at 60 secs interval for 60 mins in presence of GTP by fluorescence assay
SF-295 [25] = assay: Growth inhibition of human SF-295 cells measured after 48 hrs by sulforhodamine B assay; assay type: functional; settings: read-out: LC50 (the source's name)
SF-295 [26] = assay: Growth inhibition of human SF-295 cells at 10 uM measured after 48 hrs by sulforhodamine B assay; assay type: functional, cell-based

SMILES: O=C(N/N=C/c1ccc(Br)s1)c1[nH]c2ccc(Br)cc2c1-c1ccccc1
- GI50 (NCI-H522 [1]): < 100 nM
- CC50 (NCI-H522 [1]): > 10000 nM
- growth inhibition (GI) (NCI/ADR-RES [2]): Active
- growth inhibition (GI) (NCI-H522 [3]): Active
- GI50 (NCI/ADR-RES [4]): < 100 nM
- CC50 (NCI/ADR-RES [4]): > 10000 nM
- GI50 (SF-539 [5]): < 100 nM
- CC50 (SF-539 [5]): > 10000 nM
- growth inhibition (GI) (SF-539 [6]): Active

SMILES: COc1csc(/C=N/NC(=O)c2[nH]c3ccc(Br)cc3c2-c2ccccc2)c1
- Activity (MDA-MB-231 [7]): 6.61%
- Activity (MDA-MB-231 [8]): 10%
- Activity (MDA-MB-231 [9]): 6.44%
- viability at 10 µM (MDA-MB-231 [10]): 66.7%
- GI50 (MDA-MB-435 [11]): 19.1 nM
- CC50 (MDA-MB-435 [11]): 259 nM
- GI50 (NCI-H522 [1]): < 10 nM
- CC50 (NCI-H522 [1]): > 100000 nM
- Activity (MDA-MB-231 [12]): Active
- IC50 (MDA-MB-231 [13]): 160 nM
- growth inhibition (GI) (NCI-H522 [3]): Active
- growth inhibition (GI) (COLO 205 [14]): Active
- inhibition (Sus scrofa [15]): inactive
- GI50 (COLO 205 [16]): 19.1 nM
- CC50 (COLO 205 [16]): 70.8 nM
- growth inhibition (GI) (MDA-MB-435 [17]): Active
- GI50 (SK-MEL-5 [18]): 18.6 nM
- CC50 (SK-MEL-5 [18]): 74.9 nM
- growth inhibition (GI) (SK-MEL-5 [19]): Active
- Activity (MDA-MB-231 [20]): 20.25%
- IC50 at 48 h [21]: 30 nM
- Activity (MDA-MB-231 [22]): 15.6%
- Activity (MDA-MB-231 [23]): 74.5%

SMILES: O=C(N/N=C/c1ccc(Cl)s1)c1[nH]c2ccc(Br)cc2c1-c1ccccc1
- GI50 (NCI-H522 [1]): < 100 nM
- CC50 (NCI-H522 [1]): > 10000 nM
- growth inhibition (GI) (NCI/ADR-RES [2]): Active
- growth inhibition (GI) (NCI-H522 [3]): Active
- GI50 (NCI/ADR-RES [4]): < 100 nM
- CC50 (NCI/ADR-RES [4]): > 10000 nM
- GI50 (SF-539 [5]): < 100 nM
- CC50 (SF-539 [5]): > 10000 nM
- growth inhibition (GI) (SF-539 [6]): Active

SMILES: COc1ccsc1/C=N/NC(=O)c1[nH]c2ccc(Br)cc2c1-c1ccccc1
- Activity (MDA-MB-231 [7]): 4.98%
- Activity (MDA-MB-231 [8]): 10.2%
- Activity (MDA-MB-231 [9]): 3.55%
- viability at 10 µM (MDA-MB-231 [10]): 85.8%
- GI50 (MDA-MB-435 [11]): 240 nM
- CC50 (MDA-MB-435 [11]): > 100000 nM
- GI50 (NCI-H522 [1]): 213 nM
- CC50 (NCI-H522 [1]): 8560 nM
- Activity (MDA-MB-231 [12]): Active
- IC50 (MDA-MB-231 [13]): 4130 nM
- growth inhibition (GI) (NCI-H522 [3]): Active
- growth inhibition (GI) (COLO 205 [14]): Active
- GI50 (COLO 205 [16]): 435 nM
- CC50 (COLO 205 [16]): 5920 nM
- growth inhibition (GI) (MDA-MB-435 [17]): Active
- GI50 (SK-MEL-5 [18]): 321 nM
- CC50 (SK-MEL-5 [18]): > 100000 nM
- growth inhibition (GI) (SK-MEL-5 [19]): Active
- Activity (MDA-MB-231 [20]): 5.7%
- IC50 at 48 h [21]: 540 nM
- RFU (Sus scrofa [24]): 20 a.u.
- Activity (MDA-MB-231 [22]): 19.6%
- Activity (MDA-MB-231 [23]): 70%

SMILES: COc1ccc(/C=N/NC(=O)c2[nH]c3ccc(Br)cc3c2-c2ccccc2)s1
- Activity (MDA-MB-231 [7]): 5.13%
- Activity (MDA-MB-231 [8]): 11.2%
- Activity (MDA-MB-231 [9]): 3.48%
- viability at 10 µM (MDA-MB-231 [10]): 85.2%
- GI50 (MDA-MB-435 [11]): 25.3 nM
- CC50 (MDA-MB-435 [11]): > 100000 nM
- GI50 (NCI-H522 [1]): 19.3 nM
- CC50 (NCI-H522 [1]): > 100000 nM
- Activity (MDA-MB-231 [12]): Active
- IC50 (MDA-MB-231 [13]): 560 nM
- growth inhibition (GI) (NCI-H522 [3]): Active
- growth inhibition (GI) (COLO 205 [14]): Active
- inhibition (Sus scrofa [15]): inactive
- GI50 (COLO 205 [16]): 191 nM
- CC50 (COLO 205 [16]): 719 nM
- growth inhibition (GI) (MDA-MB-435 [17]): Active
- GI50 (SK-MEL-5 [18]): 52.3 nM
- CC50 (SK-MEL-5 [18]): > 100000 nM
- growth inhibition (GI) (SK-MEL-5 [19]): Active
- Activity (MDA-MB-231 [20]): 6.21%
- IC50 at 48 h [21]: 340 nM
- RFU (Sus scrofa [24]): 45 a.u.
- Activity (MDA-MB-231 [22]): 17.9%
- Activity (MDA-MB-231 [23]): 70.7%

SMILES: O=C(N/N=C/c1ccc(-c2ccc(O)cc2)o1)c1[nH]c2ccc(Br)cc2c1-c1ccccc1
- CC50 (SF-295 [25]): 8090 nM
- growth inhibition (GI) (COLO 205 [14]): Active
- CC50 (COLO 205 [16]): 7210 nM
- CC50 (SK-MEL-5 [18]): 4140 nM
- growth inhibition (GI) (SK-MEL-5 [19]): Active
- growth inhibition (GI) (SF-295 [26]): Active
- RFU (Sus scrofa [24]): 45 a.u.
